For 25 molecules, IC50 results are on record in patent US8178668B2, “2-aminopyridine kinase inhibitors” (OSI Pharmaceuticals, LLC, priority 2008, dated 2012).

Assay [1] has as its target MET (human) (Homo sapiens, UniProt P08581). Kind of assay: MET kinase AlphaScreen assay (Km of ATP). Type of assay: biochemical. The following applies: ATP at Km; at least duplicate experiments. On the procedure:
(§1) Person skilled in the art will appreciate that a variety of assay formats may be used to determine the activity of the compounds of this invention. For example, AlphaScreen (Amplified Luminescent Proximity Homogeneous Assay) technology was used with the kinases described below. Assay ATP concentrations for individual kinases are included in the text.
MET (human)—Km of ATP: MET assay is performed in a 384 well assay containing 200 ng/μL biotinylated poly(Glu,Tyr), 0.334 mM vanadate, desired concentration of ATP optimized for the enzyme in assay buffer (50 mM HEPES (pH=7.4), 5 mM MgCl2, 5 mM MnCl2, and 1% glycerol). Desired compound is added in a final concentration of 1% DMSO with control being vehicle of DMSO alone. MET is diluted to the optimized concentration (optimized on a lot-by-lot basis) in an enzyme diluent buffer (50 mM Tris pH=7.4, 1% glycerol, 0.03% Brij35, 0.24 mM EGTA, 1 mM DTT, and 0.003% BSA). Enzyme is added to initiate the reaction and incubated for 60 min at RT. In subdued light, appropriate amount of PT66 donor and acceptor beads (diluted 1:260 from manufacturer's provision in a 25 mM Tris HCl (pH=7.5), 400 mM NaCl, 100 mM EDTA, 0.3% BSA buffer) are added to the wells. The plates, incubated for 1 h, are read on an AlphaQuest plate reader

In assay [2] the target is RON (human) (Homo sapiens, UniProt Q04912). Kind of assay: RON kinase AlphaScreen assay (Km of ATP). Type of assay: biochemical. As to conditions: ATP at Km; at least duplicate experiments. On the procedure: as §1
RON (human), sequence (Q04912 25-1400): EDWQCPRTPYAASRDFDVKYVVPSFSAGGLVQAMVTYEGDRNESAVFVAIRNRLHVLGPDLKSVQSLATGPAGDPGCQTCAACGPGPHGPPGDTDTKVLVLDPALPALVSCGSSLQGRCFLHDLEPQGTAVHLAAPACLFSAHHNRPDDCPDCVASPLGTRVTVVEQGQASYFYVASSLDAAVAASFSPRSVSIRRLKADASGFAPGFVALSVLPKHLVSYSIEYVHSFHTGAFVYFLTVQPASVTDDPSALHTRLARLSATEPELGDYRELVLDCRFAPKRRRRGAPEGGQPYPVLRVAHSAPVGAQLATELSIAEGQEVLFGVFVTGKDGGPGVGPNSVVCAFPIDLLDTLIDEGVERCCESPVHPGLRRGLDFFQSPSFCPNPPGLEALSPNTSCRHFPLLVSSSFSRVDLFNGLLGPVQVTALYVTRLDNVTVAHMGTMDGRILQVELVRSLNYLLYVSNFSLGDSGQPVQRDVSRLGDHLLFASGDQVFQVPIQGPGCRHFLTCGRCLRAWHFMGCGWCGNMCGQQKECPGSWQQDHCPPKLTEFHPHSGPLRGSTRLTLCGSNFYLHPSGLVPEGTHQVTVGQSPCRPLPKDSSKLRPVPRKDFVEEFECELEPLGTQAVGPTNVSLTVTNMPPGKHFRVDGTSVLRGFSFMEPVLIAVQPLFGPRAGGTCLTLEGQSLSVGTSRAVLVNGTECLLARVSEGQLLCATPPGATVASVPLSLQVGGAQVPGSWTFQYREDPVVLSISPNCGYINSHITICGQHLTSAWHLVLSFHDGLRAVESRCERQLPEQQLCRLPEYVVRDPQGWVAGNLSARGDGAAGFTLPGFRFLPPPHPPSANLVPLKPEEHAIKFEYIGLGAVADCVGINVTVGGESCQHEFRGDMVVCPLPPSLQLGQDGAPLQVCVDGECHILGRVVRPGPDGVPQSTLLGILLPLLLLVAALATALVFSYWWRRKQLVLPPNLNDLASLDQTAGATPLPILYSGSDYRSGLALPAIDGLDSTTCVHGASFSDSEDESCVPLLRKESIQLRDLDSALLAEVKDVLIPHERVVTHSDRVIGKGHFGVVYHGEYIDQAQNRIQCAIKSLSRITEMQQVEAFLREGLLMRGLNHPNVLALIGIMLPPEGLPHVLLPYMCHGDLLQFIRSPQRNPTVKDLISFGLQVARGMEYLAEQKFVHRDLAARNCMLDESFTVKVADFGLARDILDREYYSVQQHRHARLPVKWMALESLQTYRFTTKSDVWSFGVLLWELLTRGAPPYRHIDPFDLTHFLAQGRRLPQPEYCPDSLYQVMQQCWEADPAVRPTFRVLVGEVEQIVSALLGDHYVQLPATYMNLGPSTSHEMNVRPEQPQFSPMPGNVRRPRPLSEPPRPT
RON (human)—Km of ATP: RON assay is performed in a 384 well assay containing 200 ng/μL biotinylated poly(Glu,Tyr), 0.334 mM vanadate, desired concentration of ATP optimized for the enzyme in assay buffer (50 mM HEPES (pH=7.4), 12.5 mM MgCl2 and 1% glycerol). Desired compound is added in a final concentration of 1% DMSO with control being vehicle of DMSO alone. RON is diluted to the optimized (on a lot-by-lot basis) concentration in an enzyme diluent buffer (50 mM HEPES pH=7.4, 12.5 mM MgCl2 and 1% glycerol, 0.03% Brij35, 0.3 mM EGTA, lmM DTT, and 0.003% BSA). Enzyme is added to initiate the reaction and incubated for 30 min at RT. In subdued light, appropriate amount of PT66 donor and acceptor beads (diluted 1:260 from manufacturer's provision in a 25 mM Tris HCl (pH=7.5), 200 mM NaCl, 100 mM EDTA, 0.3% BSA buffer) are added to the wells. The plates, incubated for 1 h, are read on an AlphaQuest plate reader.

Structures can show the parent of a compound that is named as a salt.

MET (human), sequence (P08581 25-1390): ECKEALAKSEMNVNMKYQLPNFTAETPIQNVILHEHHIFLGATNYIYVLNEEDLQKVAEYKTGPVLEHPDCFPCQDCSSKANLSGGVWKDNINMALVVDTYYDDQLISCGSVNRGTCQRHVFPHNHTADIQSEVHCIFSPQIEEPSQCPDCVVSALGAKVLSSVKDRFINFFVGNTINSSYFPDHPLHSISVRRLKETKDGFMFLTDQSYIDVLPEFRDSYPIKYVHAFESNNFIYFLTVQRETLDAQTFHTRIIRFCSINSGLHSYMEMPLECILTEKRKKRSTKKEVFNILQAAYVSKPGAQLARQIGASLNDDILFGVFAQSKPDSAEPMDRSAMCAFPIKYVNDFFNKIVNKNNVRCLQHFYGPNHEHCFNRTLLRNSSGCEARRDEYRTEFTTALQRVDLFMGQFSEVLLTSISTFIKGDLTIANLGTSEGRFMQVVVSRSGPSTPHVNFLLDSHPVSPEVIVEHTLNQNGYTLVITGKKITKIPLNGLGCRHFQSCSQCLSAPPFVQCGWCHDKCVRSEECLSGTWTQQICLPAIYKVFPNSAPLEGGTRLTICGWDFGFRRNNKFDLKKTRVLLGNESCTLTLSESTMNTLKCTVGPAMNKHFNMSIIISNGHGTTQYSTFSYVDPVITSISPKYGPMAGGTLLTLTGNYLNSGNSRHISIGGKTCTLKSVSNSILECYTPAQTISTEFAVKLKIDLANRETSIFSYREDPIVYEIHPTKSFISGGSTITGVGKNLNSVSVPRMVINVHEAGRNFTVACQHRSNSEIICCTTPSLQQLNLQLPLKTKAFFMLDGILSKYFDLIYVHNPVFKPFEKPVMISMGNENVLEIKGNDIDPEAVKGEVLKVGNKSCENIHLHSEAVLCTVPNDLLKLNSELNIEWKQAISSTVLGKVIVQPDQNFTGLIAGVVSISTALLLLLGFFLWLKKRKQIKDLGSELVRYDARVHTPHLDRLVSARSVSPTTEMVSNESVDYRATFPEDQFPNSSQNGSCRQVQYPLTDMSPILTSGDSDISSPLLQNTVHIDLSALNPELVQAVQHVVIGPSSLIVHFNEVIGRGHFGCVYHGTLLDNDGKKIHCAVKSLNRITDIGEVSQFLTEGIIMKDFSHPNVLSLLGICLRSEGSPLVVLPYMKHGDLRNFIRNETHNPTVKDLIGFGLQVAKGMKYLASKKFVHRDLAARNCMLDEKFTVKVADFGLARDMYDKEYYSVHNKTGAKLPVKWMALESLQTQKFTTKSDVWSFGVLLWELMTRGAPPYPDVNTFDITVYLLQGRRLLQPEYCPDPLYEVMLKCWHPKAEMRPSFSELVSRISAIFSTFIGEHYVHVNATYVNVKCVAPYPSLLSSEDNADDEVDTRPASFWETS

The IC50 is the concentration that inhibits the measured activity by half. With `Nc1ncc(-c2cnn(C3CCNCC3)c2)cc1-c1cc2cc(-c3ccccc3)ccc2cn1` [Example 25, 3-(6-Phenylisoquinolin-3-yl)-5-(1-piperidin-4-yl-1H-pyrazol-4-yl)-pyridin-2-ylamine tri-hydrochloride salt], the IC50 in assay [1] and in assay [2] was 0.1 to 1 µM each time.

Regarding `Nc1ncc(-c2cnn(C3CCNCC3)c2)cc1-c1cc2ccc(-c3ccccc3)cc2cn1` [Example 26, 3-(7-Phenylisoquinolin-3-yl)-5-(1-piperidin-4-yl-1H-pyrazol-4-yl)-pyridin-2-ylamine tri-hydrochloride salt], the IC50 in assay [1] and in assay [2] was 0.1 to 1 µM each time.

As to `Nc1ncc(-c2cnn(C3CCNCC3)c2)cc1-c1cc2c(O)cccc2cn1` [Example 27, 3-[2-Amino-5-(1-piperidin-4-yl-1H-pyrazol-4-yl)-pyridin-3-yl]-isoquinolin-5-ol tri-hydrochloride salt], the half-maximal inhibitory concentration (IC50) in assay [1] and in assay [2] was 0.1 to 1 µM in each case.

On to `Nc1ncc(-c2cnn(C3CCNCC3)c2)cc1-c1cc2cc(O)ccc2cn1` [Example 28, 3-[2-Amino-5-(1-piperidin-4-yl-1H-pyrazol-4-yl)-pyridin-3-yl]-isoquinolin-6-ol trihydrochloride salt], for which the IC50 in assay [1] lay in the range of 0.1 to 1 µM; in assay [2], 1 to 20 µM.

Take `Nc1ncc(-c2cnn(C3CCNCC3)c2)cc1-c1cc2ccc(O)cc2cn1` [Example 29, 3-[2-Amino-5-(1-piperidin-4-yl-1H-pyrazol-4-yl)-pyridin-3-yl]-isoquinolin-7-ol]: the half-inhibitory concentration (IC50) in assay [1] and in assay [2] was 0.1 to 1 µM in each case.

For `COc1nc(-c2cc(-c3cnn(C4CCNCC4)c3)cnc2N)cc2ccccc12` [Example 30, 3-(1-Methoxyisoquinolin-3-yl)-5-(1-piperidin-4-yl-1H-pyrazol-4-yl)-pyridin-2-ylamine trihydrochloride salt], the IC50 in assay [1] lay within 0.1 to 1 µM; in assay [2], 1 to 20 µM.

Consider `N#Cc1ccc2cnc(-c3cc(-c4cnn(C5CCNCC5)c4)cnc3N)cc2c1` [Example 31, 3-[2-Amino-5-(1-piperidin-4-yl-1H-pyrazol-4-yl)-pyridin-3-yl]-isoquinoline-6-carbonitrile trihydrochloride salt], for which the IC50 in assay [1] and in assay [2] was 1 to 20 µM throughout.

As to `N#Cc1ccc2cc(-c3cc(-c4cnn(C5CCNCC5)c4)cnc3N)ncc2c1` [Example 32, 3-[2-Amino-5-(1-piperidin-4-yl-1H-pyrazol-4-yl)-pyridin-3-yl]-isoquinoline-7-carbonitrile trihydrochloride salt], the half-maximal inhibitory concentration (IC50) in assay [1] and in assay [2] was 0.1 to 1 µM throughout.

In the case of `N#Cc1cccc2cnc(-c3cc(-c4cnn(C5CCNCC5)c4)cnc3N)cc12` [Example 33, 3-[2-Amino-5-(1-piperidin-4-yl-1H-pyrazol-4-yl)-pyridin-3-yl]-isoquinoline-5-carbonitrile trihydrochloride salt], the IC50 in assay [1] and in assay [2] was 0.1 to 1 µM throughout.

For `Nc1ncc(-c2cnn(C3CCNCC3)c2)cc1-c1cc2ccc(F)cc2cn1` [Example 34, 3-(7-Fluoroisoquinolin-3-yl)-5-(1-piperidin-4-yl-1H-pyrazol-4-yl)-pyridin-2-ylamine], the IC50 in assay [1] fell in the range of 0.1 to 1 µM; in assay [2] it was 1 to 20 µM.

Regarding `Nc1ncc(-c2cnn(C3CCNCC3)c2)cc1-c1cc2cc(F)ccc2cn1` [Example 35, 3-(6-Fluoroisoquinolin-3-yl)-5-(1-piperidin-4-yl-1H-pyrazol-4-yl)-pyridin-2-ylamine], the half-maximal inhibitory concentration (IC50) in assay [1] and in assay [2] was 1 to 20 µM throughout.

For the molecule `N#Cc1cccc2cc(-c3cc(-c4cnn(C5CCNCC5)c4)cnc3N)ncc12` [Example 36, 3-[2-Amino-5-(1-piperidin-4-yl-1H-pyrazol-4-yl)-pyridin-3-yl]-isoquinoline-8-carbonitrile trihydrochloride salt], the IC50 in assay [1] and in assay [2] was 0.1 to 1 µM in each case.

Take `N#Cc1ccc(F)c2cnc(-c3cc(-c4cnn(C5CCNCC5)c4)cnc3N)cc12` [Example 37, 3-[2-Amino-5-(1-piperidin-4-yl-1H-pyrazol-4-yl)-pyridin-3-yl]-8-fluoro-isoquinoline-5-carbonitrile trihydrochloride]: the IC50 in assay [1] and in assay [2] was 0.1 to 1 µM throughout.

For the molecule `Nc1ncc(-c2cnn(C3CCNCC3)c2)cc1-c1cc2ccc(F)c(Cl)c2cn1` [Example 38, 3-(8-Chloro-7-fluoroisoquinolin-3-yl)-5-(1-piperidin-4-yl-1H-pyrazol-4-yl)-pyridin-2-ylamine trihydrochloride salt], the IC50 in assay [1] was at most 0.1 µM; in assay [2], 0.1 to 1 µM.

Turning to `Nc1ncc(-c2cnn(C3CCNCC3)c2)cc1-c1cc2cccc(F)c2cn1` [Example 39, 3-(8-Fluoroisoquinolin-3-yl)-5-(1-piperidin-4-yl-1H-pyrazol-4-yl)-pyridin-2-ylamine], the IC50 is at most 0.1 µM in assay [1] and 0.1 to 1 µM in assay [2].

In the case of `Nc1ncc(-c2cnn(C3CCNCC3)c2)cc1-c1cc2cc(Cl)ccc2cn1` [Example 40, 3-(6-Chloroisoquinolin-3-yl)-5-(1-piperidin-4-yl-1H-pyrazol-4-yl)-pyridin-2-ylamine trihydrochloride], the concentration for half-maximal inhibition (IC50) in assay [1] and in assay [2] was 0.1 to 1 µM in each case.

For `Nc1ncc(-c2cnn(C3CCNCC3)c2)cc1-c1cc2ccc(Cl)cc2cn1` [Example 41, 3-(7-Chloroisoquinolin-3-yl)-5-(1-piperidin-4-yl-1H-pyrazol-4-yl)-pyridin-2-ylamine trihydrochloride], the concentration for half-maximal inhibition (IC50) in assay [1] was in the range of 0.1 to 1 µM; in assay [2] it was 1 to 20 µM.

Take `Nc1ncc(-c2cnn(C3CCNCC3)c2)cc1-c1cc2c(Cl)cccc2cn1` [Example 42, 3-(5-Chloroisoquinolin-3-yl)-5-(1-piperidin-4-yl-1H-pyrazol-4-yl)-pyridin-2-ylamine trihydrochloride]: the IC50 in assay [1] and in assay [2] was 0.1 to 1 µM throughout.

As for `Nc1ncc(-c2cnn(C3CCNCC3)c2)cc1-c1cc2cc(Cl)cc(Cl)c2cn1` [Example 43, 3-(6,8-Dichloroisoquinolin-3-yl)-5-(1-piperidin-4-yl-1H-pyrazol-4-yl)-pyridin-2-ylamine trihydrochloride], the concentration for half-maximal inhibition (IC50) in assay [1] and in assay [2] was 0.1 to 1 µM throughout.

`COc1ccc2cc(-c3cc(-c4cnn(C5CCNCC5)c4)cnc3N)ncc2c1` [Example 44, 3-(7-Methoxyisoquinolin-3-yl)-5-(1-piperidin-4-yl-1H-pyrazol-4-yl)-pyridin-2-ylamine trihydrochloride]: the half-maximal inhibitory concentration (IC50) in assay [1] and in assay [2] was 1 to 20 µM each time.

Take `COc1ccc2cnc(-c3cc(-c4cnn(C5CCNCC5)c4)cnc3N)cc2c1` [Example 45, 3-(6-Methoxyisoquinolin-3-yl)-5-(1-piperidin-4-yl-1H-pyrazol-4-yl)-pyridin-2-ylamine trihydrochloride]: the figures for the IC50 in assay [1] and in assay [2] were 0.1 to 1 µM and 1 to 20 µM, respectively.

As to `Nc1ncc(-c2cnn(C3CCNCC3)c2)cc1-c1cc2cc(F)cc(F)c2cn1` [Example 46, 3-(6,8-Difluoroisoquinolin-3-yl)-5-(1-piperidin-4-yl-1H-pyrazol-4-yl)-pyridin-2-ylamine trihydrochloride salt], the IC50 in assay [1] lay in the range of 0.1 to 1 µM; in assay [2], 1 to 20 µM.

For the molecule `Nc1ncc(-c2cnn(C3CCNCC3)c2)cc1-c1cc2cc(F)cc(Cl)c2cn1` [Example 47, 3-(8-Chloro-6-fluoroisoquinolin-3-yl)-5-(1-piperidin-4-yl-1H-pyrazol-4-yl)-pyridin-2-ylamine trihydrochloride salt], the half-inhibitory concentration (IC50) in assay [1] and in assay [2] was 0.1 to 1 µM in each case.

Consider `Nc1ncc(-c2cnn(C3CCNCC3)c2)cc1-c1cc2c(-c3ccco3)ccc(F)c2cn1` [Example 48, 3-(8-Fluoro-5-furan-2-ylisoquinolin-3-yl)-5-(1-piperidin-4-yl-1H-pyrazol-4-yl)-pyridin-2-ylamine], for which the IC50 in assay [1] and in assay [2] was 0.1 to 1 µM throughout.

In the case of `Nc1ncc(-c2cnn(C3CCNCC3)c2)cc1-c1cc2c(-c3ccoc3)ccc(F)c2cn1` [Example 49, 3-(8-Fluoro-5-furan-3-ylisoquinolin-3-yl)-5-(1-piperidin-4-yl-1H-pyrazol-4-yl)-pyridin-2-ylamine trihydrochloride], the IC50 in assay [1] was at most 0.1 µM; in assay [2], 0.1 to 1 µM.
